Tests used:
Type in all cases: cell-based
Aeromonas hydrophila = test: MIC against Gram-negative bacteria: Aeromonas hydrophila
How it was run: (§1)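 Purified recombinant human EGF domain proteins are tested by broth dilution in LB against a 5×10^5 CFU/mL inoculum, with two-fold serial dilutions run in triplicate. Plates are incubated at 37° C with shaking, and the MIC is read as the lowest protein concentration without growth.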

Moraxella catarrhalis = test: MIC against Gram-negative bacteria: Moraxella catarrhalis
How it was run: as §1

Pseudomonas aeruginosa = test: MIC against Gram-negative bacteria: Pseudomonas aeruginosa
How it was run: as §1

Enterobacter cloacae = test: MIC against Gram-negative bacteria: Enterobacter cloacae
How it was run: as §1

Serratia marcescens = test: MIC against Gram-negative bacteria: Serratia marcescens
How it was run: as §1

E. coli BL21 = test: MIC against Gram-negative bacteria: E. coli BL21
How it was run: as §1

Proteus mirabilis = test: MIC against Gram-negative bacteria: Proteus mirabilis
How it was run: as §1

Klebsiella pneumonia = test: MIC against Gram-negative bacteria: Klebsiella pneumonia
How it was run: as §1

Proteus vulgaris = test: MIC against Gram-negative bacteria: Proteus vulgaris
How it was run: as §1

E. coli DH5α = test: Antibacterial activity: MIC and growth curve against E. coli DH5α in 96-well plate; details: minimal inhibitory concentration against E. coli DH5α; 96-well plate, 5×10^5 CFU/mL, 37° C., judged after 8 h
How it was run: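 MIC taken as lowest protein level with no bacterial growth, tracked by A600 every 30 min during 37 °C, 175 rpm culture. Two-fold protein series 50-12.5 μg/mL final, triplicate wells, against 5×10^5 CFU/mL of LB-washed mid-log cells.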

Citrobacter diversus = test: MIC against Gram-negative bacteria: Citrobacter diversus
How it was run: as §1

[1] = 96-well plate, 5×10^5 CFU/mL, 37° C., 10 h
[2] = A. hydrophila, 10 h cultivation at 37° C., 5×10^5 CFU/mL
[3] = M. catarrhalis, 10 h cultivation at 37° C., 5×10^5 CFU/mL
[4] = P. aeruginosa, 10 h cultivation at 37° C., 5×10^5 CFU/mL
[5] = E. cloacae, 10 h cultivation at 37° C., 5×10^5 CFU/mL
[6] = S. marcescens, 10 h cultivation at 37° C., 5×10^5 CFU/mL
[7] = E. coli BL21, 10 h cultivation at 37° C., 5×10^5 CFU/mL
[8] = P. mirabilis, 10 h cultivation at 37° C., 5×10^5 CFU/mL
[9] = K. pneumonia, 10 h cultivation at 37° C., 5×10^5 CFU/mL
[10] = P. vulgaris, 10 h cultivation at 37° C., 5×10^5 CFU/mL
[11] = C. diversus, 10 h cultivation at 37° C., 5×10^5 CFU/mL
[12] = Aeromonas hydrophila, 96-well plate, 5×10^5 CFU/mL, 37° C., 10 h
[13] = Moraxella catarrhalis, 96-well plate, 5×10^5 CFU/mL, 37° C., 10 h
[14] = Pseudomonas aeruginosa, 96-well plate, 5×10^5 CFU/mL, 37° C., 10 h
[15] = Enterobacter cloacae, 96-well plate, 5×10^5 CFU/mL, 37° C., 10 h
[16] = Serratia marcescens, 96-well plate, 5×10^5 CFU/mL, 37° C., 10 h
[17] = E. coli BL21, 96-well plate, 5×10^5 CFU/mL, 37° C., 10 h
[18] = Proteus mirabilis, 96-well plate, 5×10^5 CFU/mL, 37° C., 10 h
[19] = Klebsiella pneumonia, 96-well plate, 5×10^5 CFU/mL, 37° C., 10 h
[20] = Proteus vulgaris, 96-well plate, 5×10^5 CFU/mL, 37° C., 10 h
[21] = Citrobacter diversus, 96-well plate, 5×10^5 CFU/mL, 37° C., 10 h

PRT492 (CICYGHASSCPWDETTKKLQCQCEHNTCGESCNRCCPGYHQQPWRPGTVSSGNTCEA; listed as Homo sapiens)
MIC against A. hydrophila (Aeromonas hydrophila; [1]): 50 µg/mL | MIC against M. catarrhalis (Moraxella catarrhalis; [1]): 12.5 µg/mL | MIC against P. aeruginosa (Pseudomonas aeruginosa; [1]): 25 µg/mL | MIC against E. cloacae (Enterobacter cloacae; [1]): 25 µg/mL | MIC against S. marcescens (Serratia marcescens; [1]): 50 µg/mL | MIC against E. coli BL21 (E. coli BL21; [1]): 50 µg/mL | MIC against P. mirabilis (Proteus mirabilis; [1]): 50 µg/mL | MIC against K. pneumonia (Klebsiella pneumonia; [1]): 12.5 µg/mL | MIC against P. vulgaris (Proteus vulgaris; [1]): 12.5 µg/mL | MIC (E. coli DH5α): 25 µg/mL | MIC against C. diversus (Citrobacter diversus; [1]): 25 µg/mL

PRT186 (STLSCADSPCFNGGSCRERNQGANYACECPPNFTGSNCE; listed as Homo sapiens)
MIC (μg/mL) A. hydrophila (Aeromonas hydrophila; [2]): 25 µg/mL | MIC (μg/mL) M. catarrhalis (Moraxella catarrhalis; [3]): 25 µg/mL | MIC (μg/mL) P. aeruginosa (Pseudomonas aeruginosa; [4]): 12.5 µg/mL | MIC (μg/mL) E. cloacae (Enterobacter cloacae; [5]): 50 µg/mL | MIC (μg/mL) S. marcescens (Serratia marcescens; [6]): 12.5 µg/mL | MIC (μg/mL) E. coli BL21 (E. coli BL21; [7]): 50 µg/mL | MIC (μg/mL) P. mirabilis (Proteus mirabilis; [8]): 12.5 µg/mL | MIC (μg/mL) K. pneumonia (Klebsiella pneumonia; [9]): 25 µg/mL | MIC (μg/mL) P. vulgaris (Proteus vulgaris; [10]): 25 µg/mL | MIC (E. coli DH5α): 12.5 µg/mL | MIC (μg/mL) C. diversus (Citrobacter diversus; [11]): 12.5 µg/mL

PRT30 (PCDCYPVGSTSRSCAPHSGQCPCRPGALGRQCNSCDSPF; listed as Homo sapiens)
MIC (μg/mL) A. hydrophila (Aeromonas hydrophila; [12]): 12.5 µg/mL | MIC (μg/mL) M. catarrhalis (Moraxella catarrhalis; [13]): 50 µg/mL | MIC (μg/mL) P. aeruginosa (Pseudomonas aeruginosa; [14]): 12.5 µg/mL | MIC (μg/mL) E. cloacae (Enterobacter cloacae; [15]): 50 µg/mL | MIC (μg/mL) S. marcescens (Serratia marcescens; [16]): 12.5 µg/mL | MIC (μg/mL) E. coli BL21 (E. coli BL21; [17]): 50 µg/mL | MIC (μg/mL) P. mirabilis (Proteus mirabilis; [18]): 12.5 µg/mL | MIC (μg/mL) K. pneumonia (Klebsiella pneumonia; [19]): 25 µg/mL | MIC (μg/mL) P. vulgaris (Proteus vulgaris; [20]): 25 µg/mL | MIC (E. coli DH5α): 25 µg/mL | MIC (μg/mL) C. diversus (Citrobacter diversus; [21]): 25 µg/mL

PRT176 (APLVCRAGCSPEHGFCEQPGECRCLEGWTGPLCT; listed as Homo sapiens)
MIC (μg/mL) A. hydrophila (Aeromonas hydrophila; [2]): 12.5 µg/mL | MIC (μg/mL) M. catarrhalis (Moraxella catarrhalis; [3]): 50 µg/mL | MIC (μg/mL) P. aeruginosa (Pseudomonas aeruginosa; [4]): 25 µg/mL | MIC (μg/mL) E. cloacae (Enterobacter cloacae; [5]): 25 µg/mL | MIC (μg/mL) S. marcescens (Serratia marcescens; [6]): 25 µg/mL | MIC (μg/mL) E. coli BL21 (E. coli BL21; [7]): 12.5 µg/mL | MIC (μg/mL) P. mirabilis (Proteus mirabilis; [8]): 25 µg/mL | MIC (μg/mL) K. pneumonia (Klebsiella pneumonia; [9]): 12.5 µg/mL | MIC (μg/mL) P. vulgaris (Proteus vulgaris; [10]): 12.5 µg/mL | MIC (E. coli DH5α): 25 µg/mL | MIC (μg/mL) C. diversus (Citrobacter diversus; [11]): 25 µg/mL

PRT1327 (EINPCLENHGGCDKNAECTQTGPNQAACNCLPAYTGDGKVCT; listed as Homo sapiens)
MIC against A. hydrophila (Aeromonas hydrophila; [12]): 12.5 µg/mL | MIC against M. catarrhalis (Moraxella catarrhalis; [13]): 12.5 µg/mL | MIC against P. aeruginosa (Pseudomonas aeruginosa; [14]): 50 µg/mL | MIC against E. cloacae (Enterobacter cloacae; [15]): 50 µg/mL | MIC against S. marcescens (Serratia marcescens; [16]): 25 µg/mL | MIC against E. coli BL21 (E. coli BL21; [17]): 12.5 µg/mL | MIC against P. mirabilis (Proteus mirabilis; [18]): 12.5 µg/mL | MIC against K. pneumonia (Klebsiella pneumonia; [19]): 12.5 µg/mL | MIC against P. vulgaris (Proteus vulgaris; [20]): 12.5 µg/mL | MIC (E. coli DH5α): 25 µg/mL | MIC against C. diversus (Citrobacter diversus; [21]): 12.5 µg/mL

PRT1035 (HRAKCAPSYLFSCFNGGECVHPAFCDCRRFNATGPRCQ; listed as Homo sapiens)
MIC (Aeromonas hydrophila; A. hydrophila, 10 h cultivation at 37° C.): 50 µg/mL | MIC (Moraxella catarrhalis; M. catarrhalis, 10 h cultivation at 37° C.): 25 µg/mL | MIC (Pseudomonas aeruginosa; P. aeruginosa, 10 h cultivation at 37° C.): 12.5 µg/mL | MIC (Enterobacter cloacae; E. cloacae, 10 h cultivation at 37° C.): 25 µg/mL | MIC (Serratia marcescens; S. marcescens, 10 h cultivation at 37° C.): 50 µg/mL | MIC (E. coli BL21; E. coli BL21, 10 h cultivation at 37° C.): 50 µg/mL | MIC (Proteus mirabilis; P. mirabilis, 10 h cultivation at 37° C.): 12.5 µg/mL | MIC (Klebsiella pneumonia; K. pneumonia, 10 h cultivation at 37° C.): 25 µg/mL | MIC (Proteus vulgaris; P. vulgaris, 10 h cultivation at 37° C.): 25 µg/mL | MIC (E. coli DH5α): 12.5 µg/mL | MIC (Citrobacter diversus; C. diversus, 10 h cultivation at 37° C.): 12.5 µg/mL

PRT703 (NCSRLGCQHHCVPTLDGPTCYCNSSFQLQADGKTCK; listed as Homo sapiens)
MIC A. hydrophila (Aeromonas hydrophila; [1]): 25 µg/mL | MIC M. catarrhalis (Moraxella catarrhalis; [1]): 50 µg/mL | MIC P. aeruginosa (Pseudomonas aeruginosa; [1]): 12.5 µg/mL | MIC E. cloacae (Enterobacter cloacae; [1]): 50 µg/mL | MIC S. marcescens (Serratia marcescens; [1]): 50 µg/mL | MIC E. coli BL21 (E. coli BL21; [1]): 50 µg/mL | MIC P. mirabilis (Proteus mirabilis; [1]): 25 µg/mL | MIC K. pneumonia (Klebsiella pneumonia; [1]): 25 µg/mL | MIC P. vulgaris (Proteus vulgaris; [1]): 12.5 µg/mL | MIC (E. coli DH5α): 25 µg/mL | MIC C. diversus (Citrobacter diversus; [1]): 12.5 µg/mL

— patent US9833497B2, “Human originated EGF domain proteins and use of the same” (CHENGDU SOURCEBIO LIMITED-LIABILITY COMPANY, priority 2013, dated 2017)
